Consider six cell lines from the supplement of paper PMC10307832.

What all share (assay): relative viability (nuclei count vs DMSO), 5 days (fraction); higher = more cells survive
Compound in one assay: C(C(=O)C(=O)O)Br [Bromopyruvate]
Summed up: (§1)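 MetaXpress counted nuclei in 4× images of lung cancer cell lines that had been fixed, permeabilised and Hoechst-stained in one step. Before that, cells in 1536-well plates were kept overnight at 37 °C, pinned with five √10-spaced library-drug doses on vehicle-anchored plates, and cultured 5 days without medium change. Viability takes treated-well nuclei over vehicle-well nuclei and uses the median across plates. Plates were accepted only at control CV below 25% and at least one doubling.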

Compound in another assay: CC(O)(CS(=O)(=O)c1ccc(F)cc1)C(=O)Nc1ccc(C#N)c(C(F)(F)F)c1 [Bicalutamide]
Summed up: as §1

Compound in assay [1]: C(C(=O)C(=O)O)Br [Bromopyruvate] + CC(=O)Nc1cccc(-n2c(=O)n(C3CC3)c(=O)c3c(Nc4ccc(I)cc4F)n(C)c(=O)c(C)c32)c1 [Trametinib] (partner 0.02 µM)
Summed up:
(§2)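 Relative viability divides the nuclei count in treated wells by that in vehicle wells. Lung cancer cell lines were seeded in 1536-well plates, dosed by pin tool the next day, and fixed and stained after 5 days in one step with final 0.05% Triton X-100, 1% formaldehyde and 1 ug/ml Hoechst. Dosing was a single drug or a fixed anchor-drug dose plus five library-drug doses (not always all listed) in √10 steps, and values are medians of duplicate plates imaged at 4×.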

Compound in assay [2]: CC(O)(CS(=O)(=O)c1ccc(F)cc1)C(=O)Nc1ccc(C#N)c(C(F)(F)F)c1 [Bicalutamide] + CC1(C)CCC(c2ccc(Cl)cc2)=C(CN2CCN(c3ccc(C(=O)NS(=O)(=O)c4ccc(N[C@H](CCN5CCOCC5)CSc5ccccc5)c(S(=O)(=O)C(F)(F)F)c4)cc3)CC2)C1 [Navitoclax] (partner 0.5 µM)
Summed up: as §2

Turning to NCI-H3122, the relative viability in the assay with Bromopyruvate (1 µM) stood at 0.992; with Bromopyruvate (3.162 µM), 1.01; with Bromopyruvate (10 µM) it was 0.999; in the assay with Bromopyruvate (31.62 µM), 0.972; in the assay with Bromopyruvate (100 µM), 1.01; in the assay with Bicalutamide (0.08 µM), 1.03. Further, the relative viability with Bicalutamide (0.253 µM) was 0.977; with Bicalutamide (0.8 µM), 1.01; in the assay with Bicalutamide (2.53 µM) it was 1.03; in assay [1] (first compound 1 µM) it was 0.223; in assay [1] (first compound 3.162 µM), 0.237; in assay [1] (first compound 10 µM), 0.24. For the same cell line, the relative viability in assay [1] (first compound 31.62 µM) was 0.204; in assay [1] (first compound 100 µM), 0.129; in assay [2] (first compound 0.08 µM) it was 0.991; in assay [2] (first compound 0.253 µM), 1.01; in assay [2] (first compound 0.8 µM), 1.02; in assay [2] (first compound 2.53 µM), 1.03.
On to NCI-H441, for which the relative viability in the assay with Bromopyruvate (1 µM) worked out at 0.949; in the assay with Bromopyruvate (3.162 µM) it was 1.18; with Bromopyruvate (10 µM), 1.17; with Bromopyruvate (31.62 µM), 0.914; in the assay with Bromopyruvate (100 µM), 0.679; with Bicalutamide (0.08 µM) it was 1.13. Besides, the relative viability with Bicalutamide (0.253 µM) amounted to 0.803; with Bicalutamide (0.8 µM), 1.45; with Bicalutamide (2.53 µM), 0.976; in assay [1] (first compound 1 µM) it was 0.47; in assay [1] (first compound 3.162 µM), 0.529; in assay [1] (first compound 10 µM) it was 0.506. Further, the relative viability in assay [1] (first compound 31.62 µM) came out at 0.526; in assay [1] (first compound 100 µM) it was 0.458; in assay [2] (first compound 0.08 µM), 0.551; in assay [2] (first compound 0.8 µM), 0.622; in assay [2] (first compound 2.53 µM), 0.518.
Consider NCI-H2170, for which the relative viability amounted to 0.938 in the assay with Bromopyruvate (1 µM); 0.947 in the assay with Bromopyruvate (3.162 µM); 0.95 with Bromopyruvate (10 µM); 0.969 in the assay with Bromopyruvate (31.62 µM); 1.01 with Bromopyruvate (100 µM); 0.916 with Bicalutamide (0.08 µM). In addition, the relative viability with Bicalutamide (0.253 µM) turned out to be 0.931; with Bicalutamide (0.8 µM) it was 1.1; with Bicalutamide (2.53 µM) it was 0.987; in assay [1] (first compound 1 µM), 0.918; in assay [1] (first compound 3.162 µM) it was 0.923; in assay [1] (first compound 10 µM), 0.99. Also, the relative viability in assay [1] (first compound 31.62 µM) was 0.902; in assay [1] (first compound 100 µM) it was 0.925; in assay [2] (first compound 0.08 µM), 0.553; in assay [2] (first compound 0.253 µM), 0.506; in assay [2] (first compound 0.8 µM), 0.661; in assay [2] (first compound 2.53 µM), 0.591.
Turning to NCI-H1395, the relative viability with Bromopyruvate (1 µM) was determined as 1.07; with Bromopyruvate (3.162 µM), 0.896; with Bromopyruvate (10 µM), 0.955; in the assay with Bromopyruvate (31.62 µM), 0.787; with Bromopyruvate (100 µM) it was 1.1; with Bicalutamide (0.08 µM) it was 1.05. Moreover, the relative viability with Bicalutamide (0.253 µM) was determined as 0.9; with Bicalutamide (0.8 µM), 1.03; in the assay with Bicalutamide (2.53 µM), 0.82; in assay [1] (first compound 1 µM), 0.982; in assay [1] (first compound 3.162 µM), 0.977; in assay [1] (first compound 10 µM) it was 1.16. Besides, the relative viability in assay [1] (first compound 31.62 µM) was determined as 1.02; in assay [1] (first compound 100 µM), 1.08; in assay [2] (first compound 0.08 µM) it was 1.1; in assay [2] (first compound 0.253 µM), 1.1; in assay [2] (first compound 0.8 µM), 1.55; in assay [2] (first compound 2.53 µM) it was 1.1.
Turning to PC-14, the relative viability with Bromopyruvate (1 µM) is 1.05; with Bromopyruvate (3.162 µM) it was 1.07; with Bromopyruvate (10 µM) it was 1.09; with Bromopyruvate (31.62 µM) it was 0.997; in the assay with Bromopyruvate (100 µM), 0.943; in the assay with Bicalutamide (0.08 µM), 1.02. Further, the relative viability in the assay with Bicalutamide (0.253 µM) amounted to 1.01; with Bicalutamide (0.8 µM), 1.15; with Bicalutamide (2.53 µM) it was 0.976; in assay [1] (first compound 1 µM), 0.8; in assay [1] (first compound 3.162 µM) it was 0.717; in assay [1] (first compound 10 µM), 0.953. Further, the relative viability is 0.718 in assay [1] (first compound 31.62 µM); 0.753 in assay [1] (first compound 100 µM); 0.948 in assay [2] (first compound 0.08 µM); 0.944 in assay [2] (first compound 0.253 µM); 1.02 in assay [2] (first compound 0.8 µM); 1.08 in assay [2] (first compound 2.53 µM).
Take CAL-12T: the relative viability with Bromopyruvate (1 µM) was 0.972; with Bromopyruvate (3.162 µM), 0.982; with Bromopyruvate (10 µM), 0.919; with Bromopyruvate (31.62 µM), 0.982; with Bromopyruvate (100 µM) it was 0.956; with Bicalutamide (0.08 µM), 1.03. The relative viability with Bicalutamide (0.253 µM) came out at 0.855; with Bicalutamide (0.8 µM), 1.11; with Bicalutamide (2.53 µM) it was 0.842; in assay [1] (first compound 1 µM) it was 0.302; in assay [1] (first compound 3.162 µM), 0.285; in assay [1] (first compound 10 µM), 0.393. Moreover, the relative viability in assay [1] (first compound 31.62 µM) came out at 0.347; in assay [1] (first compound 100 µM), 0.307; in assay [2] (first compound 0.08 µM), 1.22; in assay [2] (first compound 0.253 µM) it was 1.39; in assay [2] (first compound 0.8 µM), 1.35; in assay [2] (first compound 2.53 µM), 1.09.
